Measurements reported in ChEMBL document CHEMBL1649476, “In vitro chemosensitization of Plasmodium falciparum to antimalarials by verapamil and probenecid” (Antimicrob Agents Chemother, 2009).

Tests used:
Plasmodium falciparum [1] = experiment: Antiplasmodial activity against multidrug-resistant Plasmodium falciparum VS/1 by [3H]hypoxanthine incorporation assay; assay type: functional, organism-based
Plasmodium falciparum [2] = experiment: Antiplasmodial activity against Plasmodium falciparum 3D7 by [3H]hypoxanthine incorporation assay; assay type: functional, organism-based
Plasmodium falciparum [3] = experiment: Selectivity ratio of IC50 for Plasmodium falciparum 3D7 to IC50 for multidrug-resistant Plasmodium falciparum VS/1; assay type: functional
Plasmodium falciparum [4] = experiment: Chemosensitization of chloroquine against multidrug-resistant Plasmodium falciparum VS/1 by [3H]hypoxanthine incorporation assay; assay type: functional
Plasmodium falciparum [5] = experiment: Chemosensitization of primaquine against multidrug-resistant Plasmodium falciparum VS/1 by [3H]hypoxanthine incorporation assay; assay type: functional
Plasmodium falciparum [6] = experiment: Chemosensitization of amodiaquin against multidrug-resistant Plasmodium falciparum VS/1 by [3H]hypoxanthine incorporation assay; assay type: functional
Plasmodium falciparum [7] = experiment: Chemosensitization of piperaquine against multidrug-resistant Plasmodium falciparum VS/1 by [3H]hypoxanthine incorporation assay; assay type: functional
Plasmodium falciparum [8] = experiment: Chemosensitization of desethylamodiaquin against multidrug-resistant Plasmodium falciparum VS/1 by [3H]hypoxanthine incorporation assay; assay type: functional
Plasmodium falciparum [9] = experiment: Chemosensitization of halofantrine against multidrug-resistant Plasmodium falciparum VS/1 by [3H]hypoxanthine incorporation assay; assay type: functional
Plasmodium falciparum [10] = experiment: Chemosensitization of lumefantrine against multidrug-resistant Plasmodium falciparum VS/1 by [3H]hypoxanthine incorporation assay; assay type: functional
Plasmodium falciparum [11] = experiment: Chemosensitization of mefloquine against multidrug-resistant Plasmodium falciparum VS/1 by [3H]hypoxanthine incorporation assay; assay type: functional
Plasmodium falciparum [12] = experiment: Chemosensitization of quinine against multidrug-resistant Plasmodium falciparum VS/1 by [3H]hypoxanthine incorporation assay; assay type: functional
Plasmodium falciparum [13] = experiment: Chemosensitization of chlorcycloguanil against multidrug-resistant Plasmodium falciparum VS/1 by [3H]hypoxanthine incorporation assay; assay type: functional
Plasmodium falciparum [14] = experiment: Chemosensitization of pyrimethamine against multidrug-resistant Plasmodium falciparum VS/1 by [3H]hypoxanthine incorporation assay; assay type: functional
Plasmodium falciparum [15] = experiment: Chemosensitization of methotrexate against multidrug-resistant Plasmodium falciparum VS/1 by [3H]hypoxanthine incorporation assay; assay type: functional
Plasmodium falciparum [16] = experiment: Chemosensitization of benzonaphthyridine pyronaridine against multidrug-resistant Plasmodium falciparum VS/1 by [3H]hypoxanthine incorporation assay; assay type: functional
Plasmodium falciparum [17] = experiment: Chemosensitization of sesquiterpene dihydroartemisinin pyronaridine against multidrug-resistant Plasmodium falciparum VS/1 by [3H]hypoxanthine incorporation assay; assay type: functional

C=C[C@H]1CN2CC[C@H]1C[C@H]2[C@H](O)c1ccnc2ccc(OC)cc12 [QUININE]
IC50 (Plasmodium falciparum [1]): 133 nM

CCCCN(CCCC)CCC(O)c1cc2c(Cl)cc(Cl)cc2c2cc(C(F)(F)F)ccc12 (configuration not stated) [HALOFANTRINE]
IC50 (Plasmodium falciparum [1]): 9 nM

CCc1nc(N)nc(N)c1-c1ccc(Cl)cc1 [PYRIMETHAMINE]
IC50 (Plasmodium falciparum [1]): 5000 nM

CCN(CC)Cc1cc(Nc2ccnc3cc(Cl)ccc23)ccc1O
IC50 (Plasmodium falciparum [1]): 8 nM

COc1cc(NC(C)CCCN)c2ncccc2c1 (configuration not stated) [PRIMAQUINE]
IC50 (Plasmodium falciparum [1]): 326 nM | IC50 (Plasmodium falciparum [2]): 326 nM | Ratio IC50 (Plasmodium falciparum [3]): 5

COc1ccc(CCN(C)CCCC(C#N)(c2ccc(OC)c(OC)c2)C(C)C)cc1OC (configuration not stated) [VERAPAMIL]
FICI (Plasmodium falciparum [4]): 0.52 nM | FICI (Plasmodium falciparum [5]): 0.71 nM | FICI (Plasmodium falciparum [6]): 1.4 nM | FICI (Plasmodium falciparum [7]): 1.13 nM | FICI (Plasmodium falciparum [8]): 0.47 nM | FICI (Plasmodium falciparum [9]): 1.1 nM | FICI (Plasmodium falciparum [10]): 0.55 nM | FICI (Plasmodium falciparum [11]): 1.12 nM | FICI (Plasmodium falciparum [12]): 0.39 nM | FICI (Plasmodium falciparum [13]): 1 nM | FICI (Plasmodium falciparum [14]): 1.07 nM | FICI (Plasmodium falciparum [15]): 1.33 nM | FICI (Plasmodium falciparum [16]): 1.07 nM | FICI (Plasmodium falciparum [17]): 1.07 nM

CC1(C)N=C(N)N=C(N)N1c1ccc(Cl)c(Cl)c1 [CHLORCYCLOGUANIL]
IC50 (Plasmodium falciparum [1]): 79 nM

CCNCc1cc(Nc2ccnc3cc(Cl)ccc23)ccc1O [DESETHYL AMODIAQUINE]
IC50 (Plasmodium falciparum [1]): 42 nM

Clc1ccc2c(N3CCN(CCCN4CCN(c5ccnc6cc(Cl)ccc56)CC4)CC3)ccnc2c1 [PIPERAQUINE]
IC50 (Plasmodium falciparum [1]): 88 nM

CCCCN(CCCC)CC(O)c1cc(Cl)cc2c1-c1ccc(Cl)cc1/C2=C/c1ccc(Cl)cc1 (configuration not stated) [LUMEFANTRINE]
IC50 (Plasmodium falciparum [1]): 53 nM | IC50 (Plasmodium falciparum [2]): 1690 nM | Ratio IC50 (Plasmodium falciparum [3]): 2

CN(Cc1cnc2nc(N)nc(N)c2n1)c1ccc(C(=O)N[C@@H](CCC(=O)O)C(=O)O)cc1 [METHOTREXATE]
IC50 (Plasmodium falciparum [1]): 63 nM

CCCN(CCC)S(=O)(=O)c1ccc(C(=O)O)cc1 [PROBENECID]
FICI (Plasmodium falciparum [4]): 0.78 nM | FICI (Plasmodium falciparum [5]): 0.83 nM | FICI (Plasmodium falciparum [6]): 1.57 nM | FICI (Plasmodium falciparum [7]): 0.12 nM | FICI (Plasmodium falciparum [8]): 1.12 nM | FICI (Plasmodium falciparum [9]): 0.57 nM | FICI (Plasmodium falciparum [10]): 1.21 nM | FICI (Plasmodium falciparum [11]): 0.78 nM | FICI (Plasmodium falciparum [12]): 1.2 nM | FICI (Plasmodium falciparum [13]): 0.64 nM | FICI (Plasmodium falciparum [14]): 0.2 nM | FICI (Plasmodium falciparum [15]): 1.02 nM | FICI (Plasmodium falciparum [16]): 5.9 nM | FICI (Plasmodium falciparum [17]): 1.12 nM
